# Experimental data: patent US20070049593A1 (priority 2004, published 2007)
# Counter-ions that a name gives are not always drawn.
# Target: T1, HCV polymerase (Hepatitis C virus genotype 1b, UniProt P26663)
# T1 construct: a region encoding NS5B (J Virol 1991 March, 65(3), 1105-13, 544 amino acids after deletion of 47 amino acids on the C-terminal); 6xHis (C); made in house; host or cells: Escherichia coli
# Assay: biochemical
# Set-up: species or system HCV BK strain
# How it was run: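 His-tagged NS5B (BK strain, 47-aa C-terminal deletion, E. coli-expressed) at 0.5 μg/ml copied 5 μg/ml run-off RNA bearing the HCV 3′ UTR with 2 μM UTP plus [3H]UTP, 50 μM ATP/GTP, in pH 7.5 Tris with 5 mM MgCl2, 25 °C, 90 min. TCA-precipitated RNA was counted and IC50 calculated.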
# T1 sequence (P26663 2420-2963): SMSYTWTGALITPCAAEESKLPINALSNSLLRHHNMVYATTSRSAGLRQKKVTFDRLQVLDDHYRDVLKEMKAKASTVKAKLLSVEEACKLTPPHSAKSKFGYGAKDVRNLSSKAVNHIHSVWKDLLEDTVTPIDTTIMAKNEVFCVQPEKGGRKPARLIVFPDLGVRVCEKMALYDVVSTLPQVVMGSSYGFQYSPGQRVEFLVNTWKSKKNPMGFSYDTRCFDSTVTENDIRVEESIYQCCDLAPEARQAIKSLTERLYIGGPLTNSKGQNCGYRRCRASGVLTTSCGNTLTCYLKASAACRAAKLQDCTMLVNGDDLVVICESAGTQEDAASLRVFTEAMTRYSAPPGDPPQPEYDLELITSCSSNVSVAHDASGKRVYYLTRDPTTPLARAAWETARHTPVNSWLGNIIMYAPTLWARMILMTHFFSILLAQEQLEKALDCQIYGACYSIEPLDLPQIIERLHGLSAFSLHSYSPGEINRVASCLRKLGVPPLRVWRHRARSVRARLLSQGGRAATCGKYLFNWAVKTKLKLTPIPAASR
row,SMILES,IC50
1,"O=C(O)c1ccc2c(C3CCCCC3)c3n(c2c1)CCOc1cc(OC2CCCNC2)ccc1-3 (centres unmarked) [Example 2-46, 12-cyclohexyl-3-(piperidin-3-yloxy)-6,7-dihydro-5-oxa-7a-azadibenzo[a,e]azulene-9-carboxylic acid monohydrochloride]",< 100 nM
2,"NC(=O)c1ccc2c(C3CCCCC3)c3n(c2c1)CCOc1cc(OCc2cc(N4CCCC4=O)ccc2N2CCOCC2)ccc1-3 [Example 2-47, 12-cyclohexyl-3-[2-(morpholin-4-yl)-5-(2-oxopyrrolidin-1-yl)benzyloxy]-6,7-dihydro-5-oxa-7a-azadibenzo[a,e]azulene-9-carboxamide monohydrochloride]",< 100 nM
3,"CS(=O)(=O)c1ccc(N2CCOCC2)c(COc2ccc3c(c2)OCCn2c-3c(C3CCCCC3)c3ccc(C(N)=O)cc32)c1 [Example 2-48, 12-cyclohexyl-3-[5-methanesulfonyl-2-(morpholin-4-yl)benzyloxy]-6,7-dihydro-5-oxa-7a-azadibenzo[a,e]azulene-9-carboxamide monohydrochloride]",< 100 nM
4,"COC(=O)N[C@H](COc1ccc2c(c1)OCCn1c-2c(C2CCCCC2)c2ccc(C(=O)O)cc21)Cc1ccccc1 [Example 2-49, 12-cyclohexyl-3-((S)-2-methoxycarbonylamino-3-phenylpropoxy)-6,7-dihydro-5-oxa-7a-azadibenzo[a,e]azulene-9-carboxylic acid]",< 100 nM
5,"COC(=O)N1CC[C@H](Oc2ccc3c(c2)OCCn2c-3c(C3CCCCC3)c3ccc(C(=O)O)cc32)C1 [Example 2-50, 12-cyclohexyl-3-((S)-1-methoxycarbonylpyrrolidin-3-yloxy)-6,7-dihydro-5-oxa-7a-azadibenzo[a,e]azulene-9-carboxylic acid]",< 100 nM
6,"CC(C)[C@@H](COc1ccc2c(c1)OCCn1c-2c(C2CCCCC2)c2ccc(C(=O)O)cc21)NS(C)(=O)=O [Example 2-51, 12-cyclohexyl-3-((S)-2-methanesulfonylamino-3-methylbutoxy)-6,7-dihydro-5-oxa-7a-azadibenzo[a,e]azulene-9-carboxylic acid]",< 100 nM
7,"COC(=O)Nc1ccccc1Oc1ccc2c(c1)OCCn1c-2c(C2CCCCC2)c2ccc(C(=O)O)cc21 [Example 2-52, 12-cyclohexyl-3-[2-(methoxycarbonylamino)phenoxy]-6,7-dihydro-5-oxa-7a-azadibenzo[a,e]azulene-9-carboxylic acid]",< 100 nM
8,"O=C(O)c1ccc2c(C3CCCCC3)c3n(c2c1)CCOc1c(OCCN2CCCCC2)cccc1-3 [Example 2-53, 12-cyclohexyl-4-[2-(piperidin-1-yl)ethoxy]-6,7-dihydro-5-oxa-7a-azadibenzo[a,e]azulene-9-carboxylic acid hydrochloride]",< 100 nM
9,"O=C(O)c1ccc(NC(=O)C2(NC(=O)c3ccc4c(C5CCCCC5)c5n(c4c3)CCOc3ccccc3-5)CCC2)nc1 [Example 2-54, 6-({1-[(12-cyclohexyl-6,7-dihydro-5-oxa-7a-azadibenzo[a,e]azulene-9-carbonyl)amino]cyclobutanecarbonyl}amino)nicotinic acid]",< 100 nM
10,"O=C(O)CNC(=O)C1(NC(=O)c2ccc3c(C4CCCCC4)c4n(c3c2)CCOc2ccccc2-4)CCC1 [Example 2-55, ({1-[(12-cyclohexyl-6,7-dihydro-5-oxa-7a-azadibenzo[a,e]azulene-9-carbonyl)amino]cyclobutanecarbonyl}amino)acetic acid]",< 100 nM
11,"O=C(NC1(C(=O)NC2(C(=O)O)CCC2)CCC1)c1ccc2c(C3CCCCC3)c3n(c2c1)CCOc1ccccc1-3 [Example 2-151, 1-({1-[(12-cyclohexyl-6,7-dihydro-5-oxa-7a-azadibenzo[a,e]azulene-9-carbonyl)amino]cyclobutanecarbonyl}amino)cyclobutanecarboxylic acid]",< 100 nM
12,"COC(=O)c1ccc2nc(C3(NC(=O)c4ccc5c(C6CCCCC6)c6n(c5c4)CCOc4ccccc4-6)CCC3)[nH]c2c1 [Example 2-152, methyl 2-{1-[(12-cyclohexyl-6,7-dihydro-5-oxa-7a-azadibenzo[a,e]azulene-9-carbonyl)amino]cyclobutyl}-3H-benzimidazole-5-carboxylate]",< 100 nM
13,"O=C(O)c1ccc(N[C@@H]2CCCC[C@H]2NC(=O)c2ccc3c(C4CCCCC4)c4n(c3c2)CCOc2ccccc2-4)cc1 [Example 2-153, 4-{(1R,2R)-2-[(12-cyclohexyl-6,7-dihydro-5-oxa-7a-azadibenzo[a,e]azulene-9-carbonyl)amino]cyclohexylamino}benzoic acid]",< 100 nM
14,"COCC(C)(NC(=O)c1ccc2c(C3CCCCC3)c3n(c2c1)CCOc1ccccc1-3)C(=O)O (centres unmarked) [Example 2-154, 2-[(12-cyclohexyl-6,7-dihydro-5-oxa-7a-azadibenzo[a,e]azulene-9-carbonyl)amino]-3-methoxy-2-methylpropionic acid]",100 to 1000 nM
15,"CC(C)(C)OC(=O)N1CCC(NC(=O)c2ccc3c(C4CCCCC4)c4n(c3c2)CCOc2ccccc2-4)(C(=O)Nc2ccc(/C=C/C(=O)O)cc2)CC1 [Example 2-155, tert-butyl 4-[4-((E)-2-carboxyvinyl)phenylcarbamoyl]-4-[(12-cyclohexyl-6,7-dihydro-5-oxa-7a-azadibenzo[a,e]azulene-9-carbonyl)amino]piperidine-1-carboxylate]",< 100 nM
16,"CC(C)(COc1ccc(C(=O)O)cc1)NC(=O)c1ccc2c(C3CCCCC3)c3n(c2c1)CCOc1ccccc1-3 [Example 2-156, 4-{2-[(12-cyclohexyl-6,7-dihydro-5-oxa-7a-azadibenzo[a,e]azulene-9-carbonyl)amino]-2-methylpropoxy}benzoic acid]",< 100 nM
17,"CC(C)(COc1ccc(C#N)cc1)NC(=O)c1ccc2c(C3CCCCC3)c3n(c2c1)CCOc1ccccc1-3 [Example 2-157, N-[2-(4-cyanophenoxy)-1,1-dimethylethyl]-12-cyclohexyl-6,7-dihydro-5-oxa-7a-azadibenzo[a,e]azulene-9-carboxamide]",100 to 1000 nM
18,"CC(C)(CNc1ccc(C#N)cc1)NC(=O)c1ccc2c(C3CCCCC3)c3n(c2c1)CCOc1ccccc1-3 [Example 2-158, N-[2-(4-cyanophenylamino)-1,1-dimethylethyl]-12-cyclohexyl-6,7-dihydro-5-oxa-7a-azadibenzo[a,e]azulene-9-carboxamide]",< 100 nM
19,"O=C(O)c1ccc2nc(C3(NC(=O)c4ccc5c(C6CCCCC6)c6n(c5c4)CCOc4ccccc4-6)CCC3)[nH]c2c1 [Example 2-160, 2-{1-[(12-cyclohexyl-6,7-dihydro-5-oxa-7a-azadibenzo[a,e]azulene-9-carbonyl)amino]cyclobutyl}-3H-benzimidazole-5-carboxylic acid]",< 100 nM
20,"CC(C)N(CCN1CCCCC1)c1cccc2c1OCCn1c-2c(C2CCCCC2)c2ccc(C(=O)O)cc21 [Example 2-161, 12-cyclohexyl-4-{N-isopropyl-N-[2-(piperidin-1-yl)ethyl]amino}-6,7-dihydro-5-oxa-7a-azadibenzo[a,e]azulene-9-carboxylic acid dihydrochloride]",< 100 nM
21,"CN(C)CCN(C)c1cccc2c1OCCn1c-2c(C2CCCCC2)c2ccc(C(=O)O)cc21 [Example 2-162, 12-cyclohexyl-4-[N-(2-dimethylaminoethyl)-N-methylamino]-6,7-dihydro-5-oxa-7a-azadibenzo[a,e]azulene-9-carboxylic acid dihydrochloride]",< 100 nM
22,"COCC(C)(NC(=O)c1ccc2c(C3CCCCC3)c3n(c2c1)CCOc1ccccc1-3)C(=O)Nc1ccc(/C=C/C(=O)O)cc1 (centres unmarked) [Example 2-163, (E)-3-(4-{2-[(12-cyclohexyl-6,7-dihydro-5-oxa-7a-azadibenzo[a,e]azulene-9-carbonyl)amino]-3-methoxy-2-methylpropionylamino}phenyl)acrylic acid]",< 100 nM
23,"O=C(NCCOCCO)c1ccc2c(C3CCCCC3)c3n(c2c1)CCOc1ccccc1-3 [Example 2-164, N-[2-(2-hydroxyethoxy)ethyl]-12-cyclohexyl-6,7-dihydro-5-oxa-7a-azadibenzo[a,e]azulene-9-carboxamide]",100 to 1000 nM
24,"CC(C)(C)NC(=O)c1ccc2c(C3CCCCC3)c3n(c2c1)CCOc1ccccc1-3 [Example 2-165, N-tert-butyl-12-cyclohexyl-6,7-dihydro-5-oxa-7a-azadibenzo[a,e]azulene-9-carboxamide]",100 to 1000 nM
25,"O=C(N[C@H]1CC[C@H](O)CC1)c1ccc2c(C3CCCCC3)c3n(c2c1)CCOc1ccccc1-3 [Example 2-166, N-(trans-4-hydroxycyclohexyl)-12-cyclohexyl-6,7-dihydro-5-oxa-7a-azadibenzo[a,e]azulene-9-carboxamide]",< 100 nM
26,"CC(C)(NC(=O)c1ccc2c(C3CCCCC3)c3n(c2c1)CCOc1ccccc1-3)c1nc(C(=O)O)cs1 [Example 2-167, 2-{1-[(12-cyclohexyl-6,7-dihydro-5-oxa-7a-azadibenzo[a,e]azulene-9-carbonyl)amino]-1-methylethyl}thiazole-4-carboxylic acid]",< 100 nM
27,"CCN(CCN1CCCOCC1)c1cccc2c1OCCn1c-2c(C2CCCCC2)c2ccc(C(=O)O)cc21 [Example 2-168, 12-cyclohexyl-4-{N-ethyl-N-[2-(1,4-oxazepan-4-yl)ethyl]amino}-6,7-dihydro-5-oxa-7a-azadibenzo[a,e]azulene-9-carboxylic acid dihydrochloride]",< 100 nM
28,"CCN(CCCN1CCCCC1)c1cccc2c1OCCn1c-2c(C2CCCCC2)c2ccc(C(=O)O)cc21 [Example 2-169, 12-cyclohexyl-4-{N-ethyl-N-[3-(piperidin-1-yl)propyl]amino}-6,7-dihydro-5-oxa-7a-azadibenzo[a,e]azulene-9-carboxylic acid dihydrochloride]",< 100 nM
29,"CCN(CCN1CCOCC1)c1cccc2c1OCCn1c-2c(C2CCCCC2)c2ccc(C(=O)O)cc21 [Example 2-170, 12-cyclohexyl-4-{N-ethyl-N-[2-(morpholin-4-yl)ethyl]amino}-6,7-dihydro-5-oxa-7a-azadibenzo[a,e]azulene-9-carboxylic acid dihydrochloride]",< 100 nM
